Results published in ChEMBL document CHEMBL1201862, “PubChem BioAssay data set” (2004).
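Interpolation was linear, between the two tested concentrations surrounding the appropriate level; five concentrations were tested over 48 hours in 96-well plates. The concentration for 50% growth inhibition is given as GI50.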 The source made the active and inactive calls. Rule as the data show it: active = GI50 up to about 1.1 µM and inactive = higher.

What was measured:
Assay in all cases: NCI tumour cell line growth inhibition, 48 h
[1] = tested on: SK-MEL-5
[2] = tested on: NCI/ADR-RES
[3] = tested on: NCI-H226
[4] = tested on: SK-MEL-28
[5] = tested on: SK-OV-3
[6] = tested on: DU-145
[7] = tested on: KM12
[8] = tested on: K562
[9] = tested on: SNB-19
[10] = tested on: HCC 2998
[11] = tested on: IGROV-1
[12] = tested on: BT-549
[13] = tested on: SR
[14] = tested on: SN12C
[15] = tested on: MDA-N
[16] = tested on: UACC-62
[17] = tested on: HOP-92
[18] = tested on: SF-295
[19] = tested on: MDA-MB-435
[20] = tested on: CCRF-CEM

Row | Structure (SMILES) | GI50 [1] | GI50 [2] | GI50 [3] | GI50 [4] | GI50 [5] | GI50 [6] | GI50 [7] | GI50 [8] | GI50 [9] | GI50 [10] | GI50 [11] | GI50 [12] | GI50 [13] | GI50 [14] | GI50 [15] | GI50 [16] | GI50 [17] | GI50 [18] | GI50 [19] | GI50 [20]
1 | O=c1oc2ccccc2c(Nc2ccc3c(c2)Oc2ccccc2O3)c1[N+](=O)[O-] | 20.4 µM (inactive) | 27.9 µM (inactive) | 23.1 µM (inactive) | 21.2 µM (inactive) | 19.1 µM (inactive) | 29.6 µM (inactive) | 59.2 µM (inactive) | 51.8 µM (inactive) | 17.5 µM (inactive) | 28.1 µM (inactive) | 19 µM (inactive) | 25.6 µM (inactive) | 38.3 µM (inactive) | 35.8 µM (inactive) | 49.8 µM (inactive) | 17.7 µM (inactive) | 16.7 µM (inactive) | 18 µM (inactive) | 54.3 µM (inactive) | 40.3 µM (inactive)
2 | C=C1C(=O)O[C@H]2[C@H]([C@H](C)CCCC(C)=O)O[C@H]([C@@]3(C)CCC(=O)O3)C[C@@H]12 | > 100 µM (inactive) | > 100 µM (inactive) | 31.3 µM (inactive) | > 100 µM (inactive) | > 100 µM (inactive) | 40.6 µM (inactive) | 98.9 µM (inactive) | 61.4 µM (inactive) | > 100 µM (inactive) | 68.1 µM (inactive) | > 100 µM (inactive) | 31.8 µM (inactive) | 55.6 µM (inactive) | 92 µM (inactive) | 53.1 µM (inactive) | 66.5 µM (inactive) | > 100 µM (inactive) | > 100 µM (inactive) | 38.5 µM (inactive) | 26.9 µM (inactive)
3 | CC(C)(C)c1cc(/C=C(\C#N)C2=NCCO2)cc(C(C)(C)C)c1O | 2.38 µM (inactive) | 2.66 µM (inactive) | 5.4 µM (inactive) | 6.35 µM (inactive) | 3.31 µM (inactive) | 4.94 µM (inactive) | 3.57 µM (inactive) | 3.59 µM (inactive) | 4.43 µM (inactive) | 2.92 µM (inactive) | 6.58 µM (inactive) | 3.43 µM (inactive) | 2.92 µM (inactive) | 2.94 µM (inactive) | 4.42 µM (inactive) | 4.31 µM (inactive) | 4.06 µM (inactive) | 2.86 µM (inactive) | 4.47 µM (inactive) | 2.4 µM (inactive)
4 | O=[N+]([O-])c1ccc(-c2csc3nc(-c4ccccc4)nn23)cc1 | > 100 µM (inactive) | > 100 µM (inactive) | > 100 µM (inactive) | > 100 µM (inactive) | 61.9 µM (inactive) | > 100 µM (inactive) | > 100 µM (inactive) | > 100 µM (inactive) | > 100 µM (inactive) | > 100 µM (inactive) | > 100 µM (inactive) | > 100 µM (inactive) | > 100 µM (inactive) | > 100 µM (inactive) | > 100 µM (inactive) | > 100 µM (inactive) | 50.5 µM (inactive) | 28.3 µM (inactive) | > 100 µM (inactive) | > 100 µM (inactive)
5 | COc1ccc2c(c1)-c1c(c3ccccc3n1CCN1CCOCC1)CC2 | 14.5 µM (inactive) | 11.7 µM (inactive) | 11.7 µM (inactive) | 55.1 µM (inactive) | 53.1 µM (inactive) | 58.9 µM (inactive) | 11.5 µM (inactive) | 15.6 µM (inactive) | 21 µM (inactive) | 18.2 µM (inactive) | 5.47 µM (inactive) | 23 µM (inactive) | 19.1 µM (inactive) | 28.2 µM (inactive) | 36.7 µM (inactive) | 18.8 µM (inactive) | 36.6 µM (inactive) | 16 µM (inactive) | 34.5 µM (inactive) | 22.4 µM (inactive)
6 | O=[N+]([O-])C(=C(N1CCCCC1)N1CCCCC1)/C(Cl)=C(\Cl)[N+](=O)[O-] | 5.69 µM (inactive) | 22.7 µM (inactive) | 20.6 µM (inactive) | 16.8 µM (inactive) | 23.2 µM (inactive) | 2.88 µM (inactive) | 19.4 µM (inactive) | 1 µM (active) | 19.9 µM (inactive) | 22.1 µM (inactive) | 1.72 µM (inactive) | 6.95 µM (inactive) | 2.19 µM (inactive) | 1.67 µM (inactive) | 5.94 µM (inactive) | 15 µM (inactive) | 2.74 µM (inactive) | 21.5 µM (inactive) | 5.01 µM (inactive) | 5.11 µM (inactive)
7 | CC1(c2nc3cc(Cl)c(Cl)cc3[nH]2)CCC(C(=O)O)C(C)(C)O1 (stereo not given) | > 100 µM (inactive) | > 100 µM (inactive) | > 100 µM (inactive) | > 100 µM (inactive) | > 100 µM (inactive) | > 100 µM (inactive) | > 100 µM (inactive) | > 100 µM (inactive) | > 100 µM (inactive) | > 100 µM (inactive) | > 100 µM (inactive) | > 100 µM (inactive) | > 100 µM (inactive) | > 100 µM (inactive) | > 100 µM (inactive) | > 100 µM (inactive) | > 100 µM (inactive) | > 100 µM (inactive) | > 100 µM (inactive) | > 100 µM (inactive)
8 | c1ccc2c(c1)nc1n2CCNC1 | > 100 µM (inactive) | > 100 µM (inactive) | > 100 µM (inactive) | > 100 µM (inactive) | > 100 µM (inactive) | > 100 µM (inactive) | > 100 µM (inactive) | > 100 µM (inactive) | > 100 µM (inactive) | > 100 µM (inactive) | > 100 µM (inactive) | > 100 µM (inactive) | > 100 µM (inactive) | > 100 µM (inactive) | > 100 µM (inactive) | > 100 µM (inactive) | > 100 µM (inactive) | > 100 µM (inactive) | > 100 µM (inactive) | > 100 µM (inactive)
9 | COC(=O)c1ccc(O)c2nc3c(C=O)c(O)cc(O)c3nc12 [LOMOFUNGIN] | 0.953 µM (active) | 0.0998 µM (active) | 0.542 µM (active) | 1.93 µM (inactive) | 2.96 µM (inactive) | 0.685 µM (active) | 1.3 µM (inactive) | 0.0847 µM (active) | 1.9 µM (inactive) | 4.93 µM (inactive) | 0.206 µM (active) | 0.614 µM (active) | 10.6 µM (inactive) | 0.499 µM (active) | 1.67 µM (inactive) | 1.27 µM (inactive) | 1.2 µM (inactive) | 0.0441 µM (active) | 0.935 µM (active) | 0.259 µM (active)
